The values below come from PMC8344233, “Anticancer activity and toxicity of new quaternary ammonium geldanamycin derivative salts and their mixtures with potentiators” (Journal of Enzyme Inhibition and Medicinal Chemistry, 2021).

The test system of assay [1] is HDF. The experiment in a line: SRB cytotoxicity assay, human dermal fibroblasts HDF. The class given is cell-based. Conditions: 72 h, ± SD, mixtures equimolar 1:1, read-out: IC50 HDF (toxicity in normal cells). As for the experimental part: (§1) Medium. Human Dermal Fibroblasts cell line (HDF) was cultured in Fibroblast Basal Medium.
(§2) Each medium was supplemented with 10% fetal bovine serum, 1% L-glutamine, and 1% penicillin/streptomycin solution. The cell lines were kept in the incubator at 37◦C. The optimal plating density of cell lines was determined to be 5 × 104. All the cell lines and mediums were obtained from American Type Culture Collection (ATCC) supplied by LGC-Standards. The protein-staining SRB (Sigma-Aldrich) microculture colorimetric assay, developed by the National Cancer Institute (USA) for in vitro antitumor screening was used in this study, to estimate the cell number by providing a sensitive index of total cellular protein content, being linear to cell density. The monolayer cell culture was trypsinized and the cell count was adjusted to 5 × 10^4 cells. To each well of the 96 well microtiter plate, 0.1 mL of the diluted cell suspension (approximately […]) was added. After 24 hours, when a partial monolayer was formed, the supernatant was washed out and 100 μL of six different compound concentrations (0.1, 0.2, 1, 2, 10, and 20 μM) were added to the cells in microtitre plates. The tested compounds were dissolved in DMSO (containing 10 % of water) (100 μL) and the […]
(§3) lines. The cells were exposed to compounds for 72 hours at 37 °C in a humidified atmosphere (90% RH) containing 5% CO2. After that, 25 μL of 50 % trichloroacetic acid was added to the wells and the plates were incubated for 1 hour at 4◦C. The plates were then washed out with the distilled water to remove traces of medium and next dried by the air. The air-dried plates were stained with 100 μL of 0.4% sulforhodamine B (prepared in 1 % acetic acid) and kept for 30 minutes at room temperature. The unbound dye was removed by rapidly washing with 1% […]
(§4) acetic acid and then air dried overnight. The protein-bound dye was dissolved in 100 μL of 10 mM unbuffered Tris base (pH 10.5) for optical density determination at 490 nm. All cytotoxicity experiments were performed three times. Cell survival was measured as the percentage absorbance compared to the control (nontreated cells). Cytarabine (ara-C) and GDM were used as the internal standards. Additionally biological assays were performed in Human Dermal Fibroblasts cell line (HDF) in aim to evaluate cytotoxicity of GDM and its 1-13 analogs in healthy cells. SI indexes were calculated from equation SI = IC50 normal cell line HDF/IC50 respective cancerous cell line (Table 2). A beneficial SI > 1.0 indicates a compound with efficacy against tumor cell greater than the toxicity against normal cells. […]
On the technique in general: In SRB staining, fixed cells bind dye roughly in proportion to their protein.

For assay [2], the system named is PC-3. The experiment in a line: SRB cytotoxicity assay, PC-3 (2nd panel). The class given is cell-based, human. The note with it: for IC50: Homo sapiens, PC-3, ± SD, SRB, 72 h, mixtures equimolar 1:1; for selectivity index SIHDF (PC-3): IC50 normal cell line HDF/IC50 PC-3. As for the experimental part:
as §1, §2, §3, §4

Assay [3] deals with cancer cell lines. The assay is described as follows: Cytotoxicity, values summarised over several cancer cell lines. The class given is cell-based, human. On the procedure:
Human cancer cells SKBR-3 (human breast cancer cell line) and SKOV-3 (ovarian cancer cell line) were cultured in McCoy’s Modified Medium. Human cancer cells PC-3 (human prostate cancer cell line) were cultured in F-12K medium, as well as A549 cell line (lung cancer cell line). U-87MG cells (glioblastoma cell line) were cultured in Eagle’s Minimal Essential Medium. Human Dermal Fibroblasts cell line (HDF) was cultured in Fibroblast Basal Medium.
as §2, §3
acetic acid and then air dried overnight. The protein-bound dye was dissolved in 100 μL of 10 mM unbuffered Tris base (pH 10.5) for optical density determination at 490 nm. All cytotoxicity experiments were performed three times. Cell survival was measured as the percentage absorbance compared to the control (nontreated cells). Cytarabine (ara-C) and GDM were used as the internal standards. Additionally biological assays were performed in Human Dermal Fibroblasts cell line (HDF) in aim to evaluate cytotoxicity of GDM and its 1-13 analogs in healthy cells. SI indexes were calculated from equation SI = IC50 normal cell line HDF/IC50 respective cancerous cell line (Table 2). A beneficial SI > 1.0 indicates a compound with efficacy against tumor cell greater than the toxicity against normal cells.
All experiments were carried out with human breast adenocarcinoma (MDA-MB-231 and MCF-7), hepatocellular carcinoma (HepG2), human cervical adenocarcinoma (HeLa) cancer cell lines, and human normal lung fibroblast (CCD39Lu) cell line. The cell line was purchased from the European Collection of Cells Cultures (ECACC, Salisbury, UK), and cultured in DMEM with phenol red supplemented with 10% (v/v) FBS, 1% (v/v) penicillin/streptomycin, and 1% (v/v) L-glutamine at 37 °C, in a humidified atmosphere containing 5% CO2.
The tested compounds were dissolved in DMSO to the final concentration 10 mM and stored […]
The cytotoxic effect of the tested compounds was determined by MTT assay. MDA-MB-231, MCF-7, HepG2, HeLa, and CCD39Lu cells were seeded in 96 wells plates at density 2x10^4 cells/well and incubated overnight under cell culture condition. Next, cells were treated with tested compounds at concentrations of 10 µM; 5 µM; 2.5 µM; 1.2 µM; 0.6 µM; 0.3 µM; 0.15 […]

The mark [4] stands for this setting: Homo sapiens, SKBR-3, SKOV-3, PC-3, U-87 and A-549, approximate level or span, read-out: IC50 in 2nd panel of cancer cell lines.

Like-named read-outs stand apart in the source and are kept apart here. Where only a bound is given, the exact number is not on record here.

As for `C=CC[N+]12CCC(CC1)C(NC1=C3C[C@@H](C)C[C@H](OC)[C@H](O)[C@@H](C)/C=C(\C)[C@H](OC(N)=O)[C@@H](OC)/C=C\C=C(/C)C(=O)NC(=CC1=O)C3=O)C2` (stereo partly drawn) [Compound 9], the CC50 in assay [1] was approximately 5.29 µM. In addition, in assay [2], the IC50 worked out at 3.01 ± 0.11 µM and the “selectivity index SIHDF (PC-3)” value is reported as 1.76. In addition, the IC50 in assay [3] (setting [4]) is 2 to 3 µM.
Regarding `CO[C@H]1/C=C\C=C(/C)C(=O)NC2=CC(=O)C(NC3CN4CCC3CC4)=C(C[C@@H](C)C[C@H](OC)[C@H](O)[C@@H](C)/C=C(\C)[C@@H]1OC(N)=O)C2=O` (stereo partly drawn) [Compound 8], in assay [1], the CC50 was found to be 3.22 ± 0.18 µM. In addition, the IC50 in assay [2] is 1.47 ± 0.31 µM; in assay [3] (Homo sapiens, MDA-MB-231, MCF-7, HeLa and HepG2, read-out: IC50s in 1st panel of cancer cell lines), 0.1 to 1 µM; in assay [3] (Homo sapiens, span over the four cell lines, read-out: IC50s in MCF-7, MDA-MB-231, A549 and HeLa), 0.09 to 1.06 µM. In addition, the “selectivity index SIHDF (PC-3)” value in assay [2] was 2.19. Besides, in assay [3] (vs CCD39Lu, Table 1), the “SI indexes (1st panel, text summary)” value was less than 1.
Turning to `CO[C@H]1/C=C\C=C(/C)C(=O)NC2=CC(=O)C(NC3CCC3)=C(C[C@@H](C)C[C@H](OC)[C@H](O)[C@@H](C)/C=C(\C)[C@@H]1OC(N)=O)C2=O` [Compound 1], in assay [1], the CC50 is 30 µM. In assay [2], the IC50 is 7.02 ± 0.06 µM and the “selectivity index SIHDF (PC-3)” value amounted to 4.28. Further, the IC50 in assay [3] (setting [4]) is approximately 7.5 µM.
With `CO[C@H]1/C=C\C=C(/C)C(=O)NC2=CC(=O)C(NC3C[N+]4(C/C=C/c5ccccc5)CCC3CC4)=C(C[C@@H](C)C[C@H](OC)[C@H](O)[C@@H](C)/C=C(\C)[C@@H]1OC(N)=O)C2=O` (stereo partly drawn) [Compound 13], the CC50 in assay [1] was approximately 3.81 µM. The IC50 in assay [2] is 2.05 ± 0.09 µM; in assay [3] (setting [4]), 2 to 3 µM; in assay [3] (Homo sapiens, approximate level over the three cancer cell lines, mixtures equimolar 1:1, read-out: IC50 in SKBR-3, SKOV-3 and PC-3) it was approximately 2 µM. Also, the “selectivity index SIHDF (PC-3)” value in assay [2] turned out to be 1.86.
Turning to `C/C=C/C[N+]12CCC(CC1)C(NC1=C3C[C@@H](C)C[C@H](OC)[C@H](O)[C@@H](C)/C=C(\C)[C@H](OC(N)=O)[C@@H](OC)/C=C\C=C(/C)C(=O)NC(=CC1=O)C3=O)C2` (stereo partly drawn) [Compound 10], the CC50 in assay [1] turned out to be 2.96 ± 0.36 µM. The IC50 was 1.88 ± 0.02 µM in assay [2]; approximately 1.7 µM in assay [3] (setting [4]); 1.29 to 1.94 µM in assay [3] (SKBR-3, SKOV-3, PC-3, U-87 and A-549, approximate level or span, read-out: IC50 in 2nd panel of cancer cell lines). In addition, the “selectivity index SIHDF (PC-3)” value in assay [2] is given as 1.57.
